Usually IC50 stands for the concentration that inhibits the measured activity by half.

18 molecules from EP2608671B1, “COMPOUNDS FOR TREATMENT OF CANCER” (Gtx, Inc., priority 2010, dated 2012) can be followed below.

Read-outs that look alike come from different tables or passages of the source.

Assay [1] concerns WM-164. Description: SRB cell growth inhibition (cytotoxicity) assay. The class given is cell-based, human. Particulars: Homo sapiens.
Assay [2] concerns LNCaP. Description: cells. The following applies: Homo sapiens, 96 h.
Assay [3] concerns A375. Kind of assay: SRB cell growth inhibition (cytotoxicity) assay. The class given is cell-based, human. The following applies: Homo sapiens.
Assay [4] concerns DU 145. Description: cells. Particulars: Homo sapiens, DU-145, 96 h.
The test system of assay [5] is B16-F1. Description: SRB cell growth inhibition (cytotoxicity) assay. It counts as cell-based, mouse. The following applies: Mus musculus. The source says: (§1) The only compounds which belong to the invention are the ones falling under the scope of formula (XI).
Assay [6] relates to PPC-1. Kind of assay: cells. Particulars: Homo sapiens, PPC-1, 96 h.
The test system of assay [7] is PC-3. Description: cells. Particulars: Homo sapiens, PC-3, 96 h.
Text: as §1
Cells were stained with SRB solution.
Cells. […] Cells between the third and fifth passages were used for experiments.
Cell growth inhibition studies. […] Cells were stained with sulphorhodamine B (SRB) solution.

Setting [8] is: WM164, SRB assay, 96 h, Table 2, read-out: IC50 ± SEM (nM), WM-164.
[9] abbreviates: read-out: IC50 ± SEM (nM), LNCaP.
Setting [10] is: A-375, 96 h, read-out: IC50 ± SEM (nM), A375.
[11] abbreviates: read-out: IC50 ± SEM (nM), DU 145.
Setting [12] is: B16-F1, read-out: IC50 ± SEM (nM), B16-F1.
The mark [13] stands for this setting: read-out: IC50 ± SEM (nM), PPC-1.
Where [14] appears, read: read-out: IC50 ± SEM (nM), PC-3.
The mark [15] stands for this setting: WM164 melanoma cells, 48 h, SRB, read-out: IC50 ± SEM (nM) WM164.
The mark [16] stands for this setting: A-375, A375 melanoma cells, 48 h, SRB, read-out: IC50 ± SEM (nM) A375.
Setting [17] is: read-out: IC50 ± SEM (nM) Du 145.
[18] abbreviates: B16-F1 melanoma cells, 48 h, SRB, read-out: IC50 ± SEM (nM) B16-F1.

`COc1cc(Sc2cccc(-c3ccccc3)c2)cc(OC)c1OC` [4a, Biphenyl-3-yl(3,4,5-trimethoxyphenyl)sulfane]: the IC50 in assay [1] (setting [8]) was 2000 nM; in assay [2] (setting [9]), 300 ± 200 nM; in assay [3] (setting [10]), 11600 ± 400 nM; in assay [4] (setting [11]) it was > 10000 nM; in assay [5] (setting [12]), 2400 ± 900 nM; in assay [6] (setting [13]) it was 2300 ± 100 nM. In addition, the half-inhibitory concentration (IC50) in assay [7] (setting [14]) is > 10000 nM.

Regarding `COc1cc(S(=O)(=O)c2cccc(-c3ccccc3)c2)cc(OC)c1OC` [4b, 3-(3,4,5-Trimethoxyphenylsulfonyl)biphenyl], the IC50 in assay [1] (setting [8]), in assay [2] (setting [9]), in assay [3] (setting [10]), in assay [4] (setting [11]), in assay [5] (setting [12]) and in assay [6] (setting [13]) was > 10000 nM throughout. In assay [7] (setting [14]), the IC50 was > 10000 nM.

As to `COc1cc([S+]([O-])c2cccc(-c3ccccc3)c2)cc(OC)c1OC` (stereo not drawn) [4c, 3-(3,4,5-Trimethoxyphenylsulfinyl)biphenyl], the IC50 in assay [1] (setting [8]), in assay [2] (setting [9]), in assay [3] (setting [10]), in assay [4] (setting [11]), in assay [5] (setting [12]) and in assay [6] (setting [13]) was > 10000 nM in each case. Also, the IC50 in assay [7] (setting [14]) was > 10000 nM.

For the molecule `COc1cc(NS(=O)(=O)c2cccc(-c3ccccc3)c2)cc(OC)c1OC` [4d, N-(3,4,5-Trimethoxyphenyl)biphenyl-3-sulfonamide], the IC50 in assay [1] (setting [8]), in assay [2] (setting [9]), in assay [3] (setting [10]), in assay [4] (setting [11]), in assay [5] (setting [12]) and in assay [6] (setting [13]) was > 10000 nM each time. Further, the IC50 in assay [7] (setting [14]) was > 10000 nM.

For the molecule `COc1ccc(C(=O)c2cn(S(=O)(=O)c3ccccc3)c(-c3ccccc3)n2)cc1` [11ab, (4-methoxyphenyl)(2-phenyl-1-(phenylsulfonyl)-1H-imidazol-4-yl)methanone], the IC50 in assay [1] (setting [15]), in assay [2] (setting [9]), in assay [3] (setting [16]), in assay [4] (setting [17]), in assay [5] (setting [18]) and in assay [6] (setting [13]) was > 10000 nM in each case. Besides, the IC50 in assay [7] (setting [14]) is > 10000 nM.

With `COc1cccc(C(=O)c2cn(S(=O)(=O)c3ccccc3)c(-c3ccccc3)n2)c1` [11ac, (3-methoxyphenyl)(2-phenyl-1-(phenylsulfonyl)-1H-imidazol-4-yl)methanone], the IC50 in assay [1] (setting [15]), in assay [2] (setting [9]), in assay [3] (setting [16]), in assay [4] (setting [17]), in assay [5] (setting [18]) and in assay [6] (setting [13]) was > 10000 nM each time. The IC50 in assay [7] (setting [14]) is > 10000 nM.

Regarding `O=C(c1ccc(F)cc1)c1cn(S(=O)(=O)c2ccccc2)c(-c2ccccc2)n1` [11af, (4-fluorophenyl)(2-phenyl-1-(phenylsulfonyl)-1H-imidazol-4-yl)methanone], the IC50 in assay [1] (setting [15]) came to 596 ± 61 nM; in assay [2] (setting [9]) it was 573 nM; in assay [3] (setting [16]), 630 ± 72 nM; in assay [4] (setting [17]) it was 846 nM; in assay [5] (setting [18]), 946 ± 86 nM; in assay [6] (setting [13]), 575 nM. Moreover, in assay [7] (setting [14]), the IC50 was 2230 nM.

Consider `Cc1ccc(C(=O)c2cn(S(=O)(=O)c3ccccc3)c(-c3ccccc3)n2)cc1` [11ah, (2-phenyl-1-(phenylsulfonyl)-1H-imidazol-4-yl)(p-tolyl)methanone], for which the IC50 in assay [1] (setting [15]), in assay [2] (setting [9]), in assay [3] (setting [16]), in assay [4] (setting [17]), in assay [5] (setting [18]) and in assay [6] (setting [13]) was > 10000 nM each time. In assay [7] (setting [14]), the IC50 was > 10000 nM.

As to `Cc1ccc(-c2nc(C(=O)c3ccc(F)cc3)cn2S(=O)(=O)c2ccccc2)cc1` [11db, (4-fluorophenyl)(1-(phenylsulfonyl)-2-(p-tolyl)-1H-imidazol-4-yl)methanone], the IC50 in assay [1] (setting [15]) amounted to 107 ± 14 nM; in assay [2] (setting [9]) it was 55 ± 3 nM; in assay [3] (setting [16]), 113 ± 14 nM; in assay [4] (setting [17]) it was 80 ± 1 nM; in assay [5] (setting [18]), 287 ± 31 nM; in assay [6] (setting [13]), 57 ± 1 nM. The IC50 in assay [7] (setting [14]) is 80 ± 1 nM.

On to `COc1cc(C(=O)c2cn(S(=O)(=O)c3ccccc3)c(-c3cc(OC)c(OC)c(OC)c3)n2)cc(OC)c1OC` [11ea, (1-(phenylsulfonyl)-2-(3,4,5-trimethoxyphenyl)-1H-imidazol-4-yl)(3,4,5-trimethoxyphenyl)methanone], for which the IC50 in assay [1] (setting [15]), in assay [2] (setting [9]), in assay [3] (setting [16]), in assay [4] (setting [17]), in assay [5] (setting [18]) and in assay [6] (setting [13]) was > 10000 nM in each case. Besides, in assay [7] (setting [14]), the IC50 was > 10000 nM.

Take `COc1cc(-c2nc(C(=O)c3ccc(F)cc3)cn2S(=O)(=O)c2ccccc2)cc(OC)c1OC` [11eb, (4-fluorophenyl)(1-(phenylsulfonyl)-2-(3,4,5-trimethoxyphenyl)-1H-imidazol-4-yl)methanone]: the IC50 in assay [1] (setting [15]) is > 10000 nM; in assay [2] (setting [9]), > 10000 nM; in assay [3] (setting [16]), 3840 nM; in assay [4] (setting [17]), > 10000 nM; in assay [5] (setting [18]), > 10000 nM; in assay [6] (setting [13]), > 10000 nM. Besides, the IC50 in assay [7] (setting [14]) is > 10000 nM.

With `COc1cc(C(=O)c2cn(S(=O)(=O)c3ccccc3)c(-c3ccc(N(C)C)cc3)n2)cc(OC)c1OC` [11ga, (2-(4-(dimethylamino)phenyl)-1-(phenylsulfonyl)-1H-imidazol-4-yl)(3,4,5-trimethoxyphenyl)methanone], the IC50 in assay [1] (setting [15]) was found to be 308 ± 32 nM; in assay [2] (setting [9]), 62 ± 2 nM; in assay [3] (setting [16]) it was 162 ± 13 nM; in assay [4] (setting [17]), 99 ± 2 nM; in assay [5] (setting [18]) it was 1200 ± 90 nM; in assay [6] (setting [13]), 72 ± 0.4 nM. Further, the IC50 in assay [7] (setting [14]) was 93 ± 6 nM.

Turning to `CN(C)c1ccc(-c2nc(C(=O)c3ccc(F)cc3)cn2S(=O)(=O)c2ccccc2)cc1` [11gb, (2-(4-(dimethylamino)phenyl)-1-(phenylsulfonyl)-1H-imidazol-4-yl)(4-fluorophenyl)methanone], the IC50 was found to be 56 ± 4 nM in assay [1] (setting [15]); 56 ± 6 nM in assay [2] (setting [9]); 55 ± 7 nM in assay [3] (setting [16]); 74 ± 0.5 nM in assay [4] (setting [17]); 242 ± 26 nM in assay [5] (setting [18]); 48 ± 0.3 nM in assay [6] (setting [13]). The IC50 in assay [7] (setting [14]) was 83 ± 3 nM.

With `COc1ccc(-c2nc(C(=O)c3cc(OC)c(OC)c(OC)c3)cn2S(=O)(=O)c2ccccc2)cc1OC` [11ha, (2-(3,4-dimethoxyphenyl)-1-(phenylsulfonyl)-1H-imidazol-4-yl)(3,4,5-trimethoxyphenyl)methanone], the half-maximal inhibitory concentration (IC50) in assay [1] (setting [15]) is 139 ± 15 nM; in assay [2] (setting [9]), 114 ± 6 nM; in assay [3] (setting [16]) it was 192 ± 15 nM; in assay [4] (setting [17]) it was 144 ± 29 nM; in assay [5] (setting [18]) it was 970 ± 68 nM; in assay [6] (setting [13]) it was 117 ± 2 nM. In addition, in assay [7] (setting [14]), the IC50 came out at 197 ± 9 nM.

On to `COc1ccc(-c2nc(C(=O)c3ccc(F)cc3)cn2S(=O)(=O)c2ccccc2)cc1OC` [11hb, (2-(3,4-dimethoxyphenyl)-1-(phenylsulfonyl)-1H-imidazol-4-yl)(4-fluorophenyl)methanone], for which the IC50 in assay [1] (setting [15]) came out at 1400 ± 30 nM; in assay [2] (setting [9]), 1920 ± 77 nM; in assay [3] (setting [16]), 960 ± 59 nM; in assay [4] (setting [17]), 3310 nM; in assay [5] (setting [18]), 2000 ± 400 nM; in assay [6] (setting [13]), 1440 ± 49 nM. Besides, in assay [7] (setting [14]), the IC50 stood at 10000 nM.

For the molecule `COc1cc(C(=O)c2cn(S(=O)(=O)c3ccccc3)c(-c3ccccc3C(F)(F)F)n2)cc(OC)c1OC` [11ia, (1-(phenylsulfonyl)-2-(2-(trifluoromethyl)phenyl)-1H-imidazol-4-yl)(3,4,5-trimethoxyphenyl)methanone], the IC50 in assay [1] (setting [15]), in assay [2] (setting [9]), in assay [3] (setting [16]), in assay [4] (setting [17]), in assay [5] (setting [18]) and in assay [6] (setting [13]) was > 10000 nM throughout. In assay [7] (setting [14]), the IC50 was > 10000 nM.

With `O=C(c1ccc(F)cc1)c1cn(S(=O)(=O)c2ccccc2)c(-c2ccccc2C(F)(F)F)n1` [11ib, (1-(phenylsulfonyl)-2-(2-(trifluoromethyl)phenyl)-1H-imidazol-4-yl)(4-fluorophenyl)methanone], the IC50 in assay [1] (setting [15]), in assay [2] (setting [9]), in assay [3] (setting [16]), in assay [4] (setting [17]), in assay [5] (setting [18]) and in assay [6] (setting [13]) was > 10000 nM in each case. Also, the IC50 in assay [7] (setting [14]) was > 10000 nM.

In the case of `COc1ccc(C(=O)c2c[nH]c(-c3ccccc3)n2)cc1` [12ab, (4-methoxyphenyl)(2-phenyl-1H-imidazol-4-yl)methanone], the IC50 is > 10000 nM in assay [1] (WM164, SRB, 48 h, Tables 11, 12, read-out: IC50 (nM), WM164); > 10000 nM in assay [2] (read-out: IC50 (nM), LNCaP); > 10000 nM in assay [3] (A-375, SRB, 48 h, Table 11, read-out: IC50 (nM), A375); > 10000 nM in assay [4] (read-out: IC50 (nM), Du 145); > 10000 nM in assay [5] (B16-F1, SRB, 48 h, Table 11, read-out: IC50 (nM), B16-F1); > 10000 nM in assay [6] (read-out: IC50 (nM), PPC-1). The IC50 in assay [7] (read-out: IC50 (nM), PC-3) was > 10000 nM.
